ChEMBL document CHEMBL1147434, “Synthesis and biological results of the technetium-99m-labeled 4-nitroimidazole for imaging tumor hypoxia” (Bioorg Med Chem Lett, 2004)

Experiments:
Assay type in all cases: ADME, organism-based
[1] = system: Mus musculus; test: In vivo biodistribution of radiolabeled [99mTc]N4IPA in mice heart bearing S180 tumor cell line for 2 hours; details: ccrf s-180, 2 h
[2] = system: Mus musculus; test: In vivo biodistribution of radiolabeled [99mTc]-N4IPA in mice brain bearing S180 tumor cell line for 1 hour; details: ccrf s-180, 1 h
[3] = system: Mus musculus; test: In vivo biodistribution of radiolabeled [99mTc]-N4IPA in mice tumor/heart bearing S180 tumor cell line for 8 hours; details: ccrf s-180, 8 h
[4] = system: Mus musculus; test: In vivo biodistribution of radiolabeled [99mTc]N4IPA in mice tumor/lung bearing S180 tumor cell line for 2 hours; details: ccrf s-180, 2 h
[5] = system: Mus musculus; test: In vivo biodistribution of radiolabeled [99mTc]-N4IPA in mice tumor/heart bearing S180 tumor cell line for 30 minutes; details: ccrf s-180, 0.5 h
[6] = system: Mus musculus; test: In vivo biodistribution of radiolabeled [99mTc]-N4IPA in mice muscle bearing S180 tumor cell line for 30 minutes; details: ccrf s-180, 0.5 h
[7] = system: Mus musculus; test: In vivo biodistribution of radiolabeled [99mTc]N4IPA in mice kidney bearing S180 tumor cell line for 2 hours; details: ccrf s-180, 2 h
[8] = system: Mus musculus; test: In vivo biodistribution of radiolabeled [99mTc]-N4IPA in mice tumor/muscle bearing S180 tumor cell line for 4 hours; details: ccrf s-180, 4 h
[9] = system: Mus musculus; test: In vivo biodistribution of radiolabeled [99mTc]-N4IPA in mice tumor/lung bearing S180 tumor cell line for 4 hours; details: ccrf s-180, 4 h
[10] = system: Mus musculus; test: In vivo biodistribution of radiolabeled [99mTc]-N4IPA in mice tumor/liver bearing S180 tumor cell line for 4 hours; details: ccrf s-180, 4 h
[11] = system: Mus musculus; test: In vivo biodistribution of radiolabeled [99mTc]-N4IPA in mice blood bearing S180 tumor cell line for 8 hours; details: ccrf s-180, 8 h
[12] = system: Mus musculus; test: In vivo biodistribution of radiolabeled [99mTc]N4IPA in mice tumor/blood bearing S180 tumor cell line for 4 hours; details: ccrf s-180, 4 h
[13] = system: Mus musculus; test: In vivo biodistribution of radiolabeled [99mTc]N4IPA in mice spleen bearing S180 tumor cell line for 1 hour; details: ccrf s-180, 1 h
[14] = system: Mus musculus; test: In vivo biodistribution of radiolabeled [99mTc]-N4IPA in mice heart bearing S180 tumor cell line for 1 hour; details: ccrf s-180, 1 h
[15] = system: Mus musculus; test: In vivo biodistribution of radiolabeled [99mTc]N4IPA in mice lung bearing S180 tumor cell line for 30 minutes; details: ccrf s-180, 0.5 h
[16] = system: Mus musculus; test: In vivo biodistribution of radiolabeled [99mTc]N4IPA in mice tumor/blood bearing S180 tumor cell line for 1 hour; details: ccrf s-180, 1 h
[17] = system: Mus musculus; test: In vivo biodistribution of radiolabeled [99mTc]N4IPA in mice tumor bearing S180 tumor cell line for 8 hours; details: ccrf s-180, 8 h
[18] = system: Mus musculus; test: In vivo biodistribution of radiolabeled [99mTc]-N4IPA in mice lung bearing S180 tumor cell line for 2 hours; details: ccrf s-180, 2 h
[19] = system: Mus musculus; test: In vivo biodistribution of radiolabeled [99mTc]-N4IPA in mice tumor/liver bearing S180 tumor cell line for 1 hour; details: ccrf s-180, 1 h
[20] = system: Mus musculus; test: In vivo biodistribution of radiolabeled [99mTc]-N4IPA in mice blood bearing S180 tumor cell line for 1 hour; details: ccrf s-180, 1 h
[21] = system: Mus musculus; test: In vivo biodistribution of radiolabeled [99mTc]N4IPA in mice tumor/muscle bearing S180 tumor cell line for 1 hour; details: ccrf s-180, 1 h
[22] = system: Mus musculus; test: In vivo biodistribution of radiolabeled [99mTc]-N4IPA in mice tumor/muscle bearing S180 tumor cell line for 2 hours; details: ccrf s-180, 2 h
[23] = system: Mus musculus; test: In vivo biodistribution of radiolabeled [99mTc]N4IPA in mice tumor/liver bearing S180 tumor cell line for 2 hours; details: ccrf s-180, 2 h
[24] = system: Mus musculus; test: In vivo biodistribution of radiolabeled [99mTc]N4IPA in mice muscle bearing S180 tumor cell line for 2 hours; details: ccrf s-180, 2 h
[25] = system: Mus musculus; test: In vivo biodistribution of radiolabeled [99mTc]-N4IPA in mice spleen bearing S180 tumor cell line for 30 minutes; details: ccrf s-180, 0.5 h
[26] = system: Mus musculus; test: In vivo biodistribution of radiolabeled [99mTc]N4IPA in mice tumor/heart bearing S180 tumor cell line for 2 hours; details: ccrf s-180, 2 h
[27] = system: Mus musculus; test: In vivo biodistribution of radiolabeled [99mTc]-N4IPA in mice tumor bearing S180 tumor cell line for 4 hours; details: ccrf s-180, 4 h
[28] = system: Mus musculus; test: In vivo biodistribution of radiolabeled [99mTc]N4IPA in mice brain bearing S180 tumor cell line for 4 hours; details: ccrf s-180, 4 h
[29] = system: Mus musculus; test: In vivo biodistribution of radiolabeled [99mTc]-N4IPA in mice liver bearing S180 tumor cell line for 30 minutes; details: ccrf s-180, 0.5 h
[30] = system: Mus musculus; test: In vivo biodistribution of radiolabeled [99mTc]N4IPA in mice brain bearing S180 tumor cell line for 8 hours; details: ccrf s-180, 8 h
[31] = system: Mus musculus; test: In vivo biodistribution of radiolabeled [99mTc]-N4IPA in mice tumor/heart bearing S180 tumor cell line for 4 hours; details: ccrf s-180, 4 h
[32] = system: Mus musculus; test: In vivo biodistribution of radiolabeled [99mTc]-N4IPA in mice lung bearing S180 tumor cell line for 4 hours; details: ccrf s-180, 4 h
[33] = system: Mus musculus; test: In vivo biodistribution of radiolabeled [99mTc]-N4IPA in mice kidney bearing S180 tumor cell line for 4 hours; details: ccrf s-180, 4 h
[34] = system: Mus musculus; test: In vivo biodistribution of radiolabeled [99mTc]N4IPA in mice heart bearing S180 tumor cell line for 8 hours; details: ccrf s-180, 8 h
[35] = system: Mus musculus; test: In vivo biodistribution of radiolabeled [99mTc]N4IPA in mice tumor/blood bearing S180 tumor cell line for 30 minutes; details: ccrf s-180, 0.5 h

`N/C(CCn1cnc([N+](=O)[O-])c1)=N\O` was tested, and the Biodistribution [1] was 0.12 % g-1, the Biodistribution [2] was 0.04 % g-1 and the Biodistribution [3] was 5.39 % g-1. It also gave a Biodistribution [4] of 2.24 % g-1, a Biodistribution [5] of 2.31 % g-1 and a Biodistribution [6] of 0.15 % g-1. For the same compound, the Biodistribution [7] was 3.8 % g-1, the Biodistribution [8] was 8.6 % g-1 and the Biodistribution [9] was 2.94 % g-1. For the same compound, the Biodistribution [10] was 0.88 % g-1, the Biodistribution [11] was 0.15 % g-1 and the Biodistribution [12] was 1.88 % g-1. The Biodistribution [13] was 0.1 % g-1, the Biodistribution [14] was 0.14 % g-1 and the Biodistribution [15] was 0.39 % g-1. The Biodistribution [16] was 1.19 % g-1, the Biodistribution [17] was 0.32 % g-1 and the Biodistribution [18] was 0.17 % g-1. It also gave a Biodistribution [19] of 0.57 % g-1, a Biodistribution [20] of 0.28 % g-1 and a Biodistribution [21] of 4.25 % g-1. The Biodistribution [22] was 8.12 % g-1, the Biodistribution [23] was 0.85 % g-1 and the Biodistribution [24] was 0.05 % g-1. It also gave a Biodistribution [25] of 0.13 % g-1, a Biodistribution [26] of 3.39 % g-1 and a Biodistribution [27] of 0.34 % g-1. It also gave a Biodistribution [28] of 0.04 % g-1, a Biodistribution [29] of 0.98 % g-1 and a Biodistribution [30] of 0.04 % g-1. It also gave a Biodistribution [31] of 4.47 % g-1, a Biodistribution [32] of 0.12 % g-1 and a Biodistribution [33] of 3.14 % g-1. The Biodistribution [34] was 0.06 % g-1 and the Biodistribution [35] was 0.78 % g-1.
